Results as given in patent US20250064789A1, “KETOAMIDE DERIVATIVES AND PHARMACEUTICAL USES THEREOF” (priority 2022, published 2025).

Assays:
[1] = target: hERG potassium ion channels (Homo sapiens (Human), UniProt Q12809); test: hERG potassium current, whole cell patch clamp in HEK-293-hERG cells; conditions: 0.1 μM
in vivo = conditions: male, Sprague-Dawley, rat
Vero E6 cells = test: Cytotoxic assay against Vero E6 cells (MTT, 72 h); format: cell-based
Experimental: (§1) The cytotoxicity assessment of compounds was performed against Vero E6 cells. The specific experimental procedures: Vero E6 cells were seeded into a 96-well plate at a cell density of 2×10^4 cells/well, with 100 μL/well, and then incubated overnight at 37° C. in a 5% CO2 incubator. The next day, 100 μL of drug-containing medium was added to each well. The compound was diluted in a 2-fold serial dilution with a top concentration of […], for a total of 6 gradients. Three repeated wells were set for each concentration, and negative controls and blank controls without drugs were included for each experiment. […] All experimental data were analyzed using GraphPad Prism software.

[2] = In vivo pharmacokinetic properties in rats; conditions: SD rats
[3] = male, Sprague-Dawley, rat, in vivo, iv, 1 mg/kg
[4] = tested on: HUVEC cells (human umbilical vein endothelial cells); test: Cytotoxic assay against HUVEC cells (MTT, 72 h); format: cell-based
Experimental: (§2) BEAS-2B cells (normal human bronchial epithelial cells) and HUVEC cells (human umbilical vein endothelial cells) were used to evaluate the cytotoxicity of compounds against human-derived cells. The detailed experimental procedures: BEAS-2B cells or HUVEC cells were seeded into a 96-well plate at a cell density of 2×10^4 cells/well, that is, 100 µL/well, and then incubated overnight at 37° C. in a 5% CO2 incubator. The next day, 100 μL of drug-containing medium was added to each well. The compound was diluted in a 2-fold serial dilution with a top concentration of […], for a total of 6 gradients. Three repeated wells were set for each concentration, and negative controls and blank controls without drugs were included for each experiment. […] All experimental data were analyzed using GraphPad Prism software.

[5] = Metabolic stability using human liver microsomes; format: in vitro ADME; conditions: 37° C.; for Human liver microsomes T1/2: NADPH; for half-life at 1 µM: pH 7.4, NADPH, read-out: Human liver microsomes T1/2
[6] = tested on: BEAS-2B cells (normal human bronchial epithelial cells); test: Cytotoxic assay against human BEAS-2B cells (MTT, 72 h); format: cell-based
Experimental: as §2

[7] = Cytotoxic assay against Vero E6 cells (MTT, 72 h); format: cell-based; conditions: African green monkey
Experimental: as §1

[8] = Cytotoxic assay against HUVEC cells (MTT, 72 h); format: cell-based, human; conditions: human
Experimental: as §2

[9] = Cytotoxic assay against human BEAS-2B cells (MTT, 72 h); format: cell-based; conditions: human
Experimental: as §2

[10] = target: recombinant SARS-CoV-2 M^pro (Severe acute respiratory syndrome coronavirus 2 (2019-nCoV) (SARS-CoV-2), UniProt P0DTD1); test: Inhibition of SARS-CoV-2 M^pro enzyme activity (fluorescent substrate assay); format: biochemical; conditions: inhibition of SARS-CoV-2 M^pro enzyme activity; values in nM; read-out: IC50
human thrombin = human thrombin (Homo sapiens (Human), UniProt P00734); test: Human protease biochemical activity assay: Thrombin activity testing kit; conditions: read-out: Thrombin IC50
Experimental: (§3) The biochemical activity of compounds against human proteases was determined using Cathepsin K inhibitor screening kit (K150-100), Cathepsin B inhibitor screening kit (K147-100), Thrombin activity testing kit (K373-100), Caspase-2 inhibitor screening kit (K152-100), and Cathepsin D inhibitor screening kit (K148-100) according to the instructions of the kits (Biovision, USA). All experiments were carried out in triplicate. All experimental data were analyzed using GraphPad Prism software.

human cathepsin D = human cathepsin D (Homo sapiens (Human), UniProt P07339); test: Human protease biochemical activity assay: Cathepsin D inhibitor screening kit
Experimental: as §3

human caspase 2 = human caspase 2 (Homo sapiens (Human), UniProt P42575); test: Human protease biochemical activity assay: Caspase-2 inhibitor screening kit; conditions: read-out: Caspase-2 IC50
Experimental: as §3

human cathepsin B = human cathepsin B (Homo sapiens (Human), UniProt P07858); test: Human protease biochemical activity assay: Cathepsin B inhibitor screening kit
Experimental: as §3

human cathepsin K = human cathepsin K (Homo sapiens (Human), UniProt P43235); test: Human protease biochemical activity assay: Cathepsin K inhibitor screening kit; conditions: read-out: Cathepsin K IC50
Experimental: as §3

Sequence of human cathepsin D (P07339 65-412): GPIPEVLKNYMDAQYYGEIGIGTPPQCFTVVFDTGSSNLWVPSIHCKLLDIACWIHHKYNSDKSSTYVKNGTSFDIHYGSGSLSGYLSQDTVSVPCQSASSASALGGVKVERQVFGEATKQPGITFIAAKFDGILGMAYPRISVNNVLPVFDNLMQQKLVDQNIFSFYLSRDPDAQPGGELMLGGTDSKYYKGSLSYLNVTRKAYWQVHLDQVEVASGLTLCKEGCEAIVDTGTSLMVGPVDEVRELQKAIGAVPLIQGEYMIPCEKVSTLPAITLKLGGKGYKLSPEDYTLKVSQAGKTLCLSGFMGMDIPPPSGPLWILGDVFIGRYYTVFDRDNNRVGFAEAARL
Sequence of human cathepsin K (P43235 115-329): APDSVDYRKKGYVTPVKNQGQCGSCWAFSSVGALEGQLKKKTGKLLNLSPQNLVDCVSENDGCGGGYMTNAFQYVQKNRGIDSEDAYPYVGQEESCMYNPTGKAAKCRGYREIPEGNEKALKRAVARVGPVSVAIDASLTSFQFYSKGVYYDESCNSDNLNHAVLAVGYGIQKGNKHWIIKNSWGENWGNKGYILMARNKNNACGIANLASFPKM
Sequence of human caspase 2 (P42575 170-325): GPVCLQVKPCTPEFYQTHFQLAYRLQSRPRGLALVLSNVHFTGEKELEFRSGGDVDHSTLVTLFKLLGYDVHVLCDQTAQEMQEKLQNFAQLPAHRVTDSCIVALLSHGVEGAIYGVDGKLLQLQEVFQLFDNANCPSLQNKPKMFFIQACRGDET
Sequence of human caspase 2 (P42575 348-452): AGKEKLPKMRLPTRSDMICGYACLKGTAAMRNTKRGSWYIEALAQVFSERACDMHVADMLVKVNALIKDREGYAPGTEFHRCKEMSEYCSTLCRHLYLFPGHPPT
Sequence of hERG potassium ion channels (Q12809 whole entry, looked up): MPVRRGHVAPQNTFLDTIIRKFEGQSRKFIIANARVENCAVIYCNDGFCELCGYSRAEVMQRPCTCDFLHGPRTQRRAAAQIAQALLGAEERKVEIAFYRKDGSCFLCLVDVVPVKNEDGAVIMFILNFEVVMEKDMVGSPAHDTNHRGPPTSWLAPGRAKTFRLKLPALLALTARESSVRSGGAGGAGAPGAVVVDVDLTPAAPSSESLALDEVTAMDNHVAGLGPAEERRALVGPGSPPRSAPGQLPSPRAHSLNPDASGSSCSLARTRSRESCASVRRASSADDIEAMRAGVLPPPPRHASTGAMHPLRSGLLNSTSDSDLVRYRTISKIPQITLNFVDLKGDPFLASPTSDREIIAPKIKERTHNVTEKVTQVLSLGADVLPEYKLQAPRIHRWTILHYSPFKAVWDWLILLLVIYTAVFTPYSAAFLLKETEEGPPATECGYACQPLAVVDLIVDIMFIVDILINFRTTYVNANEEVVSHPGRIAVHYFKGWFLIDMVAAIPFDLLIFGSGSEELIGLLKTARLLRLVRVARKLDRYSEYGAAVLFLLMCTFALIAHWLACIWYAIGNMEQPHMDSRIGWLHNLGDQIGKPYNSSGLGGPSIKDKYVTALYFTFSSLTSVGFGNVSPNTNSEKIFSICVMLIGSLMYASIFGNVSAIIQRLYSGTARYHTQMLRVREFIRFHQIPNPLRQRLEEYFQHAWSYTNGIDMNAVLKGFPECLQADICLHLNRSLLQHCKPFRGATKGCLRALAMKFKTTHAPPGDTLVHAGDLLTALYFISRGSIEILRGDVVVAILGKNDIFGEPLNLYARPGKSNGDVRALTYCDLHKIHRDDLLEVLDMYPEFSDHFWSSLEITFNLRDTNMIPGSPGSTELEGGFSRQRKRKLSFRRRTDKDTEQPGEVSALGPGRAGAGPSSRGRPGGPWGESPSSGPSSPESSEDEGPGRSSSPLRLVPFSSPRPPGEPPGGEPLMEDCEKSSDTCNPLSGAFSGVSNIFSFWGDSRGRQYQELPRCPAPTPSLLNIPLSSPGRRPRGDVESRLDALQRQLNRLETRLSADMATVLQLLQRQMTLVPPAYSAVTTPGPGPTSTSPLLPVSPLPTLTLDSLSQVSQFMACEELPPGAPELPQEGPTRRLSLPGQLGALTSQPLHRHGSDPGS

Structure (SMILES)	MRT inf (in vivo; iv, 1 mg/kg) [h]	Tmax (in vivo; iv, 1 mg/kg) [h]	MRT inf (in vivo; po, 10 mg/kg) [h]	CC50 (Vero E6 cells) [µM]	AUCINF—obs ([2]; i.v. 1 mg/kg) [ng·h/mL]	AUClast ([2]; i.v. 1 mg/kg) [ng·h/mL]	Cmax ([2]; i.v. 1 mg/kg) [ng/mL]	AUCINF—obs ([2]; p.o. 10 mg/kg) [ng·h/mL]	AUClast ([2]; p.o. 10 mg/kg) [ng·h/mL]	Cmax ([2]; p.o. 10 mg/kg) [ng/mL]	T1/2 ([2]; p.o. 10 mg/kg) [h]	Vssobs [3] [L/kg]	CC50 [4] [µM]	CC50 [6] [µM]	CC50 at 72 h [7] [µM]	CC50 at 72 h [8] [µM]	CC50 at 72 h [9] [µM]	IC50 [10] [nM]	IC50 (human thrombin) [µM]	IC50 (human cathepsin D) [µM]	also measured
COc1cc(N)c(Cl)cc1C(=O)NC1CCN(CCCOc2ccc(F)cc2)CC1OC (stereo not drawn) [Cisapride, reference compound]	–	–	–	–	–	–	–	–	–	–	–	–	–	–	–	–	–	–	–	–	The average tail current after administration [1]: 128.04 pA
C[C@@H](NC(=O)C1CCC(F)(F)CC1)C(=O)N[C@H](Cc1ccccc1)C(=O)C(=O)NCc1nccs1 [Compound 354]	0.93 ± 0.18	0.08	4.89 ± 1.14	> 500	1020.76 ± 261.50	1011.17 ± 258.49	1105.29 ± 69.99	2844.61 ± 326.65	2567.31 ± 678.74	306.27 ± 32.12	3.01 ± 0.91	1.31 ± 0.54	> 500	> 500	–	–	–	–	–	–	half-life (in vivo; iv, 1 mg/kg): 2.42 ± 2.24 h; F % ([2]; p.o. 10 mg/kg): 25.39 ± 6.71%; Tmax ([2]; p.o. 10 mg/kg): 2.67 ± 1.15 h; Human liver microsomes T1/2 [5]: 0.5935 h
C[C@@H](NC(=O)C1CCC(F)(F)CC1)C(=O)N[C@H](Cc1ccco1)C(=O)C(=O)NCc1ccccn1 [Compound 362]	–	–	–	–	–	–	–	–	–	–	–	–	–	–	> 500	> 500	> 500	34 ± 0.6	–	–	half-life at 1 µM [5]: 0.561 h
C[C@@H](NC(=O)CC1CC(F)(F)C1)C(=O)N[C@H](Cc1ccccc1)C(=O)C(=O)NCc1nccs1 [Compound 378]	3.19 ± 0.31	0.08	6.57 ± 0.38	> 500	2254.80 ± 672.40	2196.61 ± 634.20	1568.34 ± 201.27	8696.48 ± 1124.53	8180.11 ± 795.05	734.80 ± 101.62	5.84 ± 1.30	3.65 ± 0.74	> 500	> 500	–	–	–	21.2 ± 0.3	> 100	> 100	bioavailability (in vivo; po, 10 mg/kg): 7.95 ± 2.8%; IC50 (human caspase 2): > 100 µM; CL ([2]; i.v. 1 mg/kg): 7.95 ± 2.80 mL/min/kg; T1/2 ([2]; i.v. 1 mg/kg): 5.47 ± 0.77 h; Tmax ([2]; p.o. 10 mg/kg): 1.33 ± 0.58 h; IC50 (human cathepsin B): > 100 µM; IC50 (human cathepsin K): > 100 µM
C[C@@H](NC(=O)C1CCC(F)(F)C1)C(=O)N[C@H](Cc1ccccc1)C(=O)C(=O)NCc1nccs1 (stereo partly drawn) [Compound 379]	1.26 ± 0.42	0.08	5.9 ± 0.79	> 500	1329.00 ± 555.62	1292.28 ± 530.92	1317.59 ± 168.03	6903.48 ± 2619.87	6721.57 ± 2461.95	634.54 ± 161.39	4.15 ± 1.48	2.49 ± 1.61	> 500	> 500	–	–	–	22.5 ± 0.7	> 100	> 100	IC50 (human caspase 2): > 100 µM; CL ([2]; i.v. 1 mg/kg): 14.52 ± 7.25 mL/min/kg; T1/2 ([2]; i.v. 1 mg/kg): 1.90 ± 0.27 h; F % ([2]; p.o. 10 mg/kg): 52.01 ± 19.05%; Tmax ([2]; p.o. 10 mg/kg): 1.67 ± 0.58 h; IC50 (human cathepsin B): > 100 µM; Human liver microsomes T1/2 [5]: 0.7035 h; IC50 (human cathepsin K): > 100 µM
O=C(CC1CC(F)(F)C1)NCC(=O)N[C@H](Cc1ccccc1)C(=O)C(=O)NCc1nccs1 [Compound 387]	–	–	–	–	–	–	–	–	–	–	–	–	–	–	> 500	> 500	> 500	12.5 ± 1.2	–	–	–
COC[C@@H](NC(=O)C1CCC(F)(F)CC1)C(=O)N[C@H](Cc1ccccc1)C(=O)C(=O)NCc1nccs1 [Compound 395]	3.55 ± 0.52	0.08	7.63 ± 0.57	132	2829.72 ± 958.55	2574.49 ± 819.96	1697.71 ± 237.45	13950.66 ± 782.95	12675.30 ± 1265.92	1006.49 ± 114.61	6.64 ± 1.17	5.25 ± 2.13	129	159	–	–	–	18.4 ± 1.3	> 100	> 100	Tmax (in vivo; po, 10 mg/kg): 4 h; IC50 (human caspase 2): > 100 µM; CL ([2]; i.v. 1 mg/kg): 6.48 ± 2.63 mL/min/kg; T1/2 ([2]; i.v. 1 mg/kg): 9.49 ± 2.16 h; F % ([2]; p.o. 10 mg/kg): 49.23 ± 4.92%; IC50 (human cathepsin B): > 100 µM; Human liver microsomes T1/2 [5]: 0.6498 h; IC50 (human cathepsin K): > 100 µM
COC[C@@H](NC(=O)CC1CC(F)(F)C1)C(=O)N[C@H](Cc1ccccc1)C(=O)C(=O)NCc1nccs1 [Compound 400]	3.18 ± 0.52	0.08	6.47 ± 0.5	> 500	2394.12 ± 644.94	2357.97 ± 638.69	1352.62 ± 116.10	11166.54 ± 364.00	10791.37 ± 123.59	805.87 ± 75.43	4.67 ± 1.04	3.28 ± 1.17	> 500	> 500	–	–	–	10.2 ± 0.1	> 100	> 100	Tmax (in vivo; po, 10 mg/kg): 2 h; IC50 (human caspase 2): > 100 µM; CL ([2]; i.v. 1 mg/kg): 7.30 ± 1.90 mL/min/kg; T1/2 ([2]; i.v. 1 mg/kg): 5.09 ± 0.57 h; F % ([2]; p.o. 10 mg/kg): 45.77 ± 0.52%; IC50 (human cathepsin B): > 100 µM; Human liver microsomes T1/2 [5]: 0.5067 h; IC50 (human cathepsin K): > 100 µM
O=C(NCc1nccs1)C(=O)[C@@H](Cc1ccccc1)NC(=O)[C@H]1CC(F)(F)CN1C(=O)C1CCC(F)(F)CC1 [Compound 402]	–	–	–	–	–	–	–	–	–	–	–	–	–	–	410	327	> 500	19.9 ± 0.3	–	–	–
C[C@@H](NC(=O)C1CCC(F)(F)C1)C(=O)N[C@H](Cc1ccccc1)C(=O)C(=O)NCc1cscn1 (stereo partly drawn) [Compound 415]	–	–	–	–	–	–	–	–	–	–	–	–	–	–	> 500	468	> 500	19.4 ± 2.2	–	–	–
C[C@@H](NC(=O)CC1CC1(F)F)C(=O)N[C@H](Cc1ccccc1)C(=O)C(=O)NCc1cscn1 (stereo partly drawn) [Compound 417]	–	–	6.55 ± 0.39	–	–	–	–	–	–	–	–	–	–	–	> 500	> 500	> 500	22.1 ± 3	> 100	> 100	AUC(0-inf) (in vivo; po, 10 mg/kg): 5070 ± 2290 ng·h/mL; AUC(0-t) (in vivo; po, 10 mg/kg): 4890 ± 2320 ng·h/mL; Cmax (in vivo; po, 10 mg/kg): 441 ± 225 ng/mL; Tmax (in vivo; po, 10 mg/kg): 3.33 ± 1.15 h; half-life (in vivo; po, 10 mg/kg): 5.07 ± 1.78 h; IC50 (human caspase 2): > 100 µM; IC50 (human cathepsin B): > 100 µM; half-life at 1 µM [5]: 0.534 h; IC50 (human cathepsin K): > 100 µM
C[C@@H](NC(=O)CC1CC(F)(F)C1)C(=O)N[C@H](Cc1ccccc1)C(=O)C(=O)NCc1cscn1 [Compound 418]	–	–	–	–	–	–	–	–	–	–	–	–	–	–	> 500	> 500	> 500	10.6 ± 0.3	–	–	–
O=C(CC1CC(F)(F)C1)NCC(=O)N[C@H](Cc1ccccc1)C(=O)C(=O)NCc1cscn1 [Compound 423]	–	–	–	–	–	–	–	–	–	–	–	–	–	–	> 500	> 500	> 500	13.2 ± 0.2	–	–	–
